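All cell lines were grown in 96-well plates and treated with compound for 48 hours. TGI: total growth inhibition.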

The first test concerns SF-295 CNS. Nature of the test: NCI anticancer screen, dose series, 48 h.
In turn, `C1CCC(N=C2N(C3CCCCC3)C(=NC3CCCCC3)N2C2CCCCC2)CC1` returned a TGI greater than 100 µM.

The compound `O=S(=O)(/N=C(\NO)Nc1ccc(Cl)cc1)c1cc(C(F)(F)F)cc(C(F)(F)F)c1` returned a TGI of 36.4 µM.

For another test, the system named is SN12C renal. Nature of the test: NCI anticancer screen, dose series, 48 h.
Regarding `CC(C)C(Cl)CCC(C)(Cl)C(=O)CBr` (stereo not drawn), the TGI amounted to 29.4 µM.

Compound `Clc1ccc(C=Nc2ccc(Oc3ccc(Cl)cc3)c(Cl)c2)cc1` yielded a TGI of 36.6 µM.

In turn, `C1CSCCSCCCS[C@@H]2CCCCC2SC1` (stereo partly drawn) gave a TGI greater than 100 µM.

The compound `Cc1cccc2sc(NC(=O)NS(=O)(=O)n3cnc4ccccc43)nc12` returned a TGI greater than 100 µM.

Consider `COC(=O)C1CCC(=O)N1CN(C(C)=O)c1cccc(O)c1` (stereo not drawn), for which the TGI was greater than 100 µM.

For the compound `NNc1nnc(CCCCCCCCc2nnc(NN)n2N)n1N`, the TGI was greater than 100 µM.

Compound `CCOC(=O)c1c(NC(=O)c2ccccc2)c(C#N)c2n1CCCCC2` registered a TGI greater than 100 µM.

The compound `Oc1c(N2CCCCC2)cc(-c2cc(N3CCCCC3)c(O)c3ccccc23)c2ccccc12` registered a TGI greater than 100 µM.

As to `c1cc(-c2ccc(-c3ccsc3)s2)cs1`, the TGI is greater than 100 µM.

In turn, `O=C1c2ccccc2N2OC3(N4CCOCC4)CCCC3C12c1ccccc1` (stereo not drawn) came in with a TGI greater than 100 µM.

`Cn1c2ccccc2c(=O)c2c(O)cc3c(c21)C1OCC(C)(O)C1O3` (stereo not drawn) returned a TGI greater than 100 µM.

As for `Cn1c(CNc2ccc(-c3n[nH]c(=S)n3C)cc2)n[nH]c1=S`, the TGI is greater than 100 µM.

Consider `COc1cc(C2c3cc4c(cc3OC(NN)C2C)OCO4)cc(OC)c1O` (stereo not drawn), for which the TGI was 62.2 µM.

In turn, `COC(=O)[C@@]12OC[C@]34C([C@@H](O)C1O)[C@@]1(C)CC(=O)C(OC(=O)CC(C)C(F)(F)F)=C(C)C1C[C@H]3OC(=O)[C@H](O)[C@H]42` (stereo partly drawn) returned a TGI of 21.2 µM.

Regarding `COC(CN(C)C(=S)Nc1cccc2ccccc12)OC`, the TGI was greater than 10 µM.

`CC1(C)O[C@@H]2[C@@H](COC(C)(C)O[C@H]2C2SCCCS2)O1`: the TGI was greater than 100 µM.

Compound `O=C(O)CCCc1ccc2c(c1)CC1(C2)Cc2cc3c(cc2C1)CCCC3` had a TGI of 44.1 µM.

On to `CN(NC1=NCCO1)c1ccc2ccccc2c1`, for which the TGI is greater than 100 µM.

Turning to `CCOC(=O)C1(C/C=C\CBr)CCCC1=O` (stereo not drawn), the TGI amounted to 40.1 µM.

Compound `COc1ccc(OC)c2sc(N3C(=O)/C(=C/c4cccc(Oc5ccccc5)c4)N=C3c3ccccc3)nc12` gave a TGI greater than 100 µM.

In the case of `Cc1cc(O)c(/C=N/C(N)=S)c(=O)o1`, the TGI was greater than 100 µM.

Compound `Cc1[nH]n(-c2nc3c(c(=O)[nH]2)CCCC3)c(=O)c1CCO` registered a TGI greater than 100 µM.

In turn, `Cc1nc2c(sc3nc4c(cc32)CCC4)c(=O)o1` came in with a TGI greater than 100 µM.

In the case of `Cc1cc2nc3c(C#N)c(-c4ccccc4)/c(=C\Nc4ccc(F)cc4)c(=O)n3c2cc1C`, the TGI is greater than 100 µM.

In turn, `O=C(c1ccccc1)C1(Br)S(=O)(=O)OCCOS1(=O)=O` returned a TGI greater than 100 µM.

The compound `C1CCC(N=C2N(C3CCCCC3)C(=NC3CCCCC3)N2C2CCCCC2)CC1` had a TGI greater than 100 µM.

Consider `O=S(=O)(/N=C(\NO)Nc1ccc(Cl)cc1)c1cc(C(F)(F)F)cc(C(F)(F)F)c1`, for which the TGI is 32.1 µM.

For another test, the system named is SR leukemia. The test is described as follows: NCI anticancer screen, dose series, 48 h.
Compound `CCOC(=O)c1c(NC(=O)c2ccccc2)c(C#N)c2n1CCCCC2` registered a TGI greater than 100 µM.

Compound `Oc1c(N2CCCCC2)cc(-c2cc(N3CCCCC3)c(O)c3ccccc23)c2ccccc12` came in with a TGI of 16.2 µM.

Compound `c1cc(-c2ccc(-c3ccsc3)s2)cs1` showed a TGI greater than 100 µM.

`O=C1c2ccccc2N2OC3(N4CCOCC4)CCCC3C12c1ccccc1` (stereo not drawn) showed a TGI greater than 100 µM.

Regarding `Cn1c2ccccc2c(=O)c2c(O)cc3c(c21)C1OCC(C)(O)C1O3` (stereo not drawn), the TGI was greater than 100 µM.

`COC(=O)[C@@]12OC[C@]34C([C@@H](O)C1O)[C@@]1(C)CC(=O)C(OC(=O)CC(C)C(F)(F)F)=C(C)C1C[C@H]3OC(=O)[C@H](O)[C@H]42` (stereo partly drawn): the TGI amounted to 19.9 µM.

`COC(CN(C)C(=S)Nc1cccc2ccccc12)OC` registered a TGI greater than 10 µM.

As for `O=C(O)CCCc1ccc2c(c1)CC1(C2)Cc2cc3c(cc2C1)CCCC3`, the TGI stood at 40.7 µM.

Consider `CN(NC1=NCCO1)c1ccc2ccccc2c1`, for which the TGI was greater than 100 µM.

Compound `Cc1nc2c(sc3nc4c(cc32)CCC4)c(=O)o1` returned a TGI greater than 100 µM.

The compound `O=C(c1ccccc1)C1(Br)S(=O)(=O)OCCOS1(=O)=O` displayed a TGI greater than 100 µM.

`C1CCC(N=C2N(C3CCCCC3)C(=NC3CCCCC3)N2C2CCCCC2)CC1` registered a TGI greater than 100 µM.

For a further test, the system named is UO-31 renal. The test is described as follows: NCI anticancer screen, dose series, 48 h.
`CC(C)C(Cl)CCC(C)(Cl)C(=O)CBr` (stereo not drawn) came in with a TGI of 15 µM.

Consider `Clc1ccc(C=Nc2ccc(Oc3ccc(Cl)cc3)c(Cl)c2)cc1`, for which the TGI was 24.8 µM.

With `C1CSCCSCCCS[C@@H]2CCCCC2SC1` (stereo partly drawn), the TGI is greater than 100 µM.

The compound `Cc1cccc2sc(NC(=O)NS(=O)(=O)n3cnc4ccccc43)nc12` registered a TGI of 61.5 µM.

As to `COC(=O)C1CCC(=O)N1CN(C(C)=O)c1cccc(O)c1` (stereo not drawn), the TGI is greater than 100 µM.

In turn, `NNc1nnc(CCCCCCCCc2nnc(NN)n2N)n1N` gave a TGI greater than 100 µM.

Compound `CCOC(=O)c1c(NC(=O)c2ccccc2)c(C#N)c2n1CCCCC2` registered a TGI greater than 100 µM.

The compound `Oc1c(N2CCCCC2)cc(-c2cc(N3CCCCC3)c(O)c3ccccc23)c2ccccc12` yielded a TGI greater than 100 µM.

The compound `c1cc(-c2ccc(-c3ccsc3)s2)cs1` had a TGI of 98.4 µM.

`O=C1c2ccccc2N2OC3(N4CCOCC4)CCCC3C12c1ccccc1` (stereo not drawn) returned a TGI greater than 100 µM.

Compound `Cn1c2ccccc2c(=O)c2c(O)cc3c(c21)C1OCC(C)(O)C1O3` (stereo not drawn) returned a TGI of 36.6 µM.

In the case of `Cn1c(CNc2ccc(-c3n[nH]c(=S)n3C)cc2)n[nH]c1=S`, the TGI was greater than 100 µM.

Compound `COc1cc(C2c3cc4c(cc3OC(NN)C2C)OCO4)cc(OC)c1O` (stereo not drawn) gave a TGI of 61.8 µM.

`COC(=O)[C@@]12OC[C@]34C([C@@H](O)C1O)[C@@]1(C)CC(=O)C(OC(=O)CC(C)C(F)(F)F)=C(C)C1C[C@H]3OC(=O)[C@H](O)[C@H]42` (stereo partly drawn) came in with a TGI greater than 62.5 µM.

Regarding `COC(CN(C)C(=S)Nc1cccc2ccccc12)OC`, the TGI was greater than 10 µM.

Compound `CC1(C)O[C@@H]2[C@@H](COC(C)(C)O[C@H]2C2SCCCS2)O1` had a TGI greater than 100 µM.

Take `N#Cc1sc2nc3ccccc3n2c1N`: the TGI is greater than 100 µM.

Consider `O=C(O)CCCc1ccc2c(c1)CC1(C2)Cc2cc3c(cc2C1)CCCC3`, for which the TGI worked out at 34.2 µM.

`CN(NC1=NCCO1)c1ccc2ccccc2c1` displayed a TGI greater than 100 µM.

In turn, `CCOC(=O)C1(C/C=C\CBr)CCCC1=O` (stereo not drawn) showed a TGI of 59.5 µM.

In turn, `COc1ccc(OC)c2sc(N3C(=O)/C(=C/c4cccc(Oc5ccccc5)c4)N=C3c3ccccc3)nc12` displayed a TGI greater than 100 µM.

The compound `Cc1cc(O)c(/C=N/C(N)=S)c(=O)o1` gave a TGI greater than 100 µM.

On to `Cc1[nH]n(-c2nc3c(c(=O)[nH]2)CCCC3)c(=O)c1CCO`, for which the TGI was greater than 100 µM.

The compound `Cc1nc2c(sc3nc4c(cc32)CCC4)c(=O)o1` came in with a TGI greater than 91.1 µM.

Regarding `Cc1cc2nc3c(C#N)c(-c4ccccc4)/c(=C\Nc4ccc(F)cc4)c(=O)n3c2cc1C`, the TGI is greater than 100 µM.

`O=C(c1ccccc1)C1(Br)S(=O)(=O)OCCOS1(=O)=O` showed a TGI greater than 100 µM.

Consider `C1CCC(N=C2N(C3CCCCC3)C(=NC3CCCCC3)N2C2CCCCC2)CC1`, for which the TGI was greater than 100 µM.
